Data from patent US20090117654A1, “MEDIUM FOR CULTURING HEM[…] AND A METHOD OF CULTURING HEM[…]” (SAMSUNG ELECTRONICS CO., LTD., priority 2006, published 2009).

Experiments:
[1] = tested on: bone marrow cells; experiment: Proliferation of bone marrow cells in serum-free basal medium including IL-3; format: cell-based, human; details: for proliferation of bone marrow cells, times more than the control medium including IL-3: 2 week culture
Description: Effects of BAPN on proliferation of bone marrow cells in serum-free basal medium including IL-3 which induces divisions of hematopoietic stem cells were inspected.
A bone marrow monocyte (Catalog number ARM07F) was purchased from Stem Cell Technology Co., Ltd. The bone marrow monocyte was obtained from a normal person, and CD34+ cells accounted for 1.6% of the total monocytes. The bone marrow cells were maintained in a maintaining medium. The maintaining medium was a IMDM including 50 ng/ml of SCF, 50 ng/ml of IL-6, 50 ng/ml of TPO, 50 ng/ml of FL, 10 μg/ml of recombinant human insulin, 100 μg/ml of bovine serum albumin (BSA), 200 μg/ml of human transferrin, 0.1 mM of 2-mercaptoethanol, and 2 mM of L-glutamine.
(§1) 100 μl of the basal medium with 20 μg/ml of IL-3, and 100 μl of the basal medium with 20 μg/ml of IL-3 and 100 μg/ml of BAPN were placed in each well of a 24 well plate, bone marrow cells were inoculated onto the media in the concentration of 1×10^5 cell/ml, and cultured for two weeks. The medium was exchanged every week. After the 2 week culture, adhesive cells were detached from the surface through trypsin treatment and the final cell concentration including floating cells was measured using a hemacytometer. In addition, the bottom of the 24 well plate was coated with collagen IV or fibronectin, and the effects of collagen IV or fibronectin were measured at the same time. In the coating, coating materials were dissolved to the concentration of from 5 to 50 μg/ml, the mixture was poured into the 24 wells to the amount of from 1 to 10 μg/cm^2 and reacted for one hour at room temperature.

[2] = tested on: bone marrow cells; experiment: Proliferation of bone marrow cells in serum-free basal medium; format: cell-based, human; details: for proliferation of bone marrow cells, times more than the control medium: 100 μg/ml BAPN, two week culture
Excerpt: Effects of β-aminopropionitrile (hereinafter referred to as BAPN) on proliferation of bone marrow cells in serum-free medium were inspected. The bone marrow cells used in Example 1 mostly consists of hematopoietic cells and is a population of cells including hematopoietic cells.
First, proliferations of bone marrow cells were inspected in a serum-free medium in the presence and absence of fibronectin and collagen IV which are extracellular matrix that is known to influence proliferation of bone marrow cells.
A bone marrow monocyte (Catalog number ARM07F) was purchased from Stem Cell Technology Co., Ltd. The bone marrow mononuclear cells was obtained from a normal person, and CD34+ cells accounted for 1.6% of the cells. The bone marrow cells were maintained in a maintenance medium. The maintenance medium was a IMDM including 50 ng/ml of SCF, 50 ng/ml of IL-6, 50 ng/ml of TPO, 50 ng/ml of FL, 10 μg/ml of recombinant human insulin, 100 μg/ml of bovine serum albumin (BSA), 200 μg/ml of human transferrin, 0.1 mM of 2-mercaptoethanol, and 2 mM of L-glutamine.
as §1, with “the basal medium, and 100” for “the basal medium with 20 μg/ml of IL-3, and 100”, “medium with 100 μg/ml” for “medium with 20 μg/ml of IL-3 and 100 μg/ml”, “After the two week culture,” for “After the 2 week culture,”, “same time. The coating materials” for “same time. In the coating, coating materials”

In the case of N#CCCN [BAPN, β-aminopropionitrile], the “proliferation of bone marrow cells, times more than the control medium including IL-3” value ([1]; 100 μg/ml BAPN with IL-3, collagen-coated 24 well plate) is reported as 2.6 times, the “proliferation of bone marrow cells, times more than the control medium including IL-3” value ([1]; 100 μg/ml BAPN with IL-3, fibronectin-coated 24 well plate) is reported as 2.0 times and the “proliferation of bone marrow cells, times more than the control medium including IL-3” value ([1]; 100 μg/ml BAPN with IL-3, uncoated 24 well plate) is reported as 3.1 times. The “effect on proliferation of bone marrow cells” value ([1]; with or without extracellular matrix coating, with or without cytokine (IL-3)) was “promoted the proliferation of bone marrow cells”, the “proliferation of bone marrow cells, times more than the control medium” value ([2]; collagen-coated 24 well plate) was 5.1 times and the “proliferation of bone marrow cells, times more than the control medium” value ([2]; fibronectin-coated 24 well plate) was 12.1 times. The “proliferation of bone marrow cells, times more than the control medium” value ([2]; uncoated 24 well plate) was 5.4 times and the “effect on proliferation of bone marrow cells” value ([2]; whether or not the culture vessel was coated with extracellular matrix) was “promoted the proliferation of bone marrow cells”.
